Where “and” joins values, the source holds several entries; their conditions need not be identical. Equal entries are not always repeated.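 Tested at 5 concentrations; 48 h exposure; 96-well plates; endpoints linearly interpolated, else capped at highest concentration. GI50 marks 50% less growth. TGI is the concentration that stops growth completely.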
Experiments:
Experiment in all cases: inhibition of tumour cell growth, NCI panel, 48 h
ACHN renal = system: ACHN renal
COLO 205 colon = system: COLO 205 colon
DU-145 prostate = system: DU-145 prostate
HCT-15 colon = system: HCT-15 colon
LOX IMVI melanoma = system: LOX IMVI melanoma
M14 melanoma = system: M14 melanoma
NCI-H522 lung = system: NCI-H522 lung
SK-MEL-2 melanoma = system: SK-MEL-2 melanoma
TK-10 renal = system: TK-10 renal
UO-31 renal = system: UO-31 renal

Row | SMILES | TGI (ACHN renal) [µM] | TGI (COLO 205 colon) [µM] | TGI (DU-145 prostate) [µM] | TGI (HCT-15 colon) [µM] | TGI (LOX IMVI melanoma) [µM] | TGI (M14 melanoma) [µM] | TGI (NCI-H522 lung) | TGI (SK-MEL-2 melanoma) [µM] | TGI (TK-10 renal) [µM] | TGI (UO-31 renal) [µM] | GI50 (COLO 205 colon) [µM] | GI50 (HCT-15 colon) [µM] | GI50 (LOX IMVI melanoma) [µM] | GI50 (NCI-H522 lung) [µM] | GI50 (UO-31 renal) [µM]
1 | COc1ccc(NC(=S)NN=C(C)c2cccc(C(C)=NNC(=S)Nc3ccc(OC)cc3)n2)cc1 | > 100 | > 100 | > 100 | > 100 | > 100 | > 100 | > 100 µM | > 100 | > 100 | > 100 | – | – | – | – | –
2 | COc1c2cc(C(C)(C)C)cc1CSCc1cc(C(C)(C)C)cc(c1OC)CCCCC2 | > 50 | > 50 | > 50 | > 50 | – | > 50 | – | > 50 | > 50 | > 50 | – | – | – | – | –
3 | NCCC1(N)CCNCC1 | > 100 | > 100 | > 100 | > 100 | – | > 100 | > 100 µM | > 100 | > 100 | > 100 | – | – | – | – | –
4 | Cc1ccc(-c2cc(-c3ccco3)nc(N)n2)o1 | > 100 | > 100 | – | > 100 | > 100 | > 100 | > 100 µM | > 100 | > 100 | > 100 | – | – | – | – | –
5 | Oc1c(Cl)c2nccnc2c2ccccc12 | > 100 | > 100 | – | > 100 | – | > 100 | > 100 µM | > 100 | > 100 | > 100 | – | – | – | – | –
6 | CCOC(=O)c1cc2cc(Cc3ccc4[nH]c(C(=O)OCC)cc4c3)ccc2[nH]1 | 44 | > 100 | > 100 | > 100 | > 100 | > 100 | – | 81.1 | 31.4 | > 100 | – | – | – | – | –
7 | N#Cc1c(-c2ccco2)c2c(n(C3OC(CO)C(O)C(O)C3O)c1=S)CCCC2 (centres undefined) | > 100 | > 100 | > 100 | > 100 | > 100 | > 100 | > 100 µM | > 100 | > 100 | – | – | – | – | – | –
8 | COc1ccc(-n2c(CCCC(=O)O)nc3c2C(=O)c2ccccc2C3=O)cc1 | > 100 | > 100 | > 100 | > 100 | > 100 | 39 | > 100 µM | > 100 | > 100 | > 100 | – | – | – | – | –
9 | CC1(C)CCc2c(cc3c(c2O)CCC(C)(C)O3)O1 | > 100 | > 100 | > 100 | > 100 | – | > 100 | > 100 µM | 98.3 | > 100 | > 100 | – | – | – | – | –
10 | O=c1[nH]cnc2c1nnn2CCCn1nnc2c(=O)[nH]cnc21 | > 100 | > 100 | – | > 100 | > 100 | > 100 | > 100 µM | > 100 | > 100 | > 100 | – | – | – | – | –
11 | C[N+]1(C)CC=C(N2CCOCC2)CC1 | > 10 | > 10 | > 10 | > 10 | > 10 | > 10 | > 10 µM | > 10 | > 10 | > 10 | – | – | – | – | –
12 | COc1c2nc(CCl)n(C)c(=O)c2c(OC)c2c(=O)n(C)c(CCl)nc12 | 2.43 | 2.71 | 14 | 2.86 | 1.75 | – | 2.8 µM | – | 1.76 | 2.49 | – | – | – | – | –
13 | C/C(=N\Nc1nc2cc(C)ccc2s1)c1ccccn1 | 11 | – | 5.65 | 30.3 | 3.68 | 3.68 | > 19.9 µM | 1.35 | > 64 | 11.1 | – | – | – | – | –
14 | CN(C)[C@@H]1C(=O)C(C(N)=O)=C(O)[C@@]2(O)C(=O)C3=C(O)c4c(O)cccc4C[C@H]3C[C@@H]12 | 14.3 | 3.25 | – | 22 | – | 3.87 | 4.29 µM | 3.31 | 7.53 | 4.08 | – | – | – | – | –
15 | COC(=O)/C(=C/c1ccc(OC)cc1)C(C(=O)O)=C(C)C | – | > 100 | – | > 100 | > 100 | > 100 | > 100 µM | > 100 | > 100 | > 100 | – | – | – | – | –
16 | c1cnc2c(c1)-n1cccc1C1(CCOCC1)NN2 | > 100 | > 100 | – | > 100 | – | > 100 | > 100 µM | > 100 | > 100 | > 100 | – | – | – | – | –
17 | C=C1CC2CC[C@@]34C[C@@H]5O[C@@H]6C(O[C@H]7CC[C@H](CC(=O)OC8[C@@H](C)C9OC%10C[C@]%11(C[C@@H]%12O[C@@]%13(C[C@@H](C)[C@@H]%12O%11)C[C@H](C)[C@@H]%11OC%12CC(C(O)CO)OC%12C[C@@H]%11O%13)OC%10CC9O[C@H]8C[C@H]8O[C@@H](CC[C@@H]1O2)C[C@@H](C)C8=C)O[C@@H]7[C@@H]6O3)C5O4 (some centres undefined) | – | – | – | – | 0.394 | 0.00675 | 0.000594 µM and < 0.000148 µM | 0.00727 | – | > 1.48 | < 0.000148 | 0.000233 | < 0.000148 | < 0.000148 | 0.505
18 | O=C(NCCNCCO)N/N=C/c1cccc([N+](=O)[O-])c1 | > 100 | > 100 | – | > 100 | > 100 | > 100 | > 100 µM | > 100 | > 100 | > 100 | – | – | – | – | –
19 | C=CCN1C(=O)CS/C1=N\NC(=O)c1c(C)nc2sccn12 | > 100 | > 100 | – | > 100 | > 100 | – | > 100 µM | > 100 | > 100 | – | – | – | – | – | –
20 | Nc1c(Br)cc(-c2cc(Br)c(N)c(Br)c2)cc1Br | > 100 | > 100 | > 100 | – | > 100 | > 100 | > 100 µM | – | > 100 | > 100 | – | – | – | – | –
21 | C=C/C(C)=C/[C@H](C)C(=O)C[C@H](O)CC1CC(=O)NC(=O)C1 | – | > 100 | – | > 100 | > 100 | – | > 87.8 µM | > 100 | – | > 100 | – | – | – | – | –
22 | CCCCCCCCCCCCNC(=O)NCC(OCC)OCC | > 10 | > 10 | > 10 | > 10 | > 10 | > 10 | > 10 µM | > 10 | > 10 | – | – | – | – | – | –
23 | COc1ccc(-n2sc3ncc(-c4ccccc4)cc3c2=O)cc1 | 48.3 | > 100 | > 100 | > 100 | > 100 | > 100 | – | > 100 | > 100 | 49.7 | – | – | – | – | –
